Laboratory results reported in patent publication US20230132823A1, “BI-FUNCTIONAL COMPOUNDS AND METHODS FOR TARGETED UBIQUITINATION OF ANDROGEN RECEPTOR” (MONTELINO THERAPEUTICS, INC., priority 2020, published 2023).
Structures can show the parent of a compound that is named as a salt. Where a SMILES comes first, the peptide text is derived from it. [ ]: non-standard residue; d: D form. The star is where a group is joined. X4 = O=C(COc1c(-c2csc(N3CCOCC3)n2)ccc(F)c1F)NCCCCN*; X3 = O=C(NCCCCCCN*)c1cccc2sc(N3CCOCC3)nc12; Dip = N[C@H](C(=O)O)C(c1ccccc1)c1ccccc1; Chg = N[C@H](C(=O)O)C1CCCCC1; NMeA = CN[C@@H](C)C(=O)O

tested on: 22Rv1-Enz^R; assay: 22Rv1-Enz^R cell proliferation assay, GIC50 (Experimental Example 4); assay type: cell-based; conditions: Homo sapiens; 6-day culture, cell media changed every 24 hours
Procedure: Selected compounds were tested in the human prostate cancer cell line, 22Rv1-Enz^R as described in Geun Taek Lee et al., Molecular Cancer Therapeutics, 20:490-9 (2021). These procedures are similar to that described in Experimental Example 1, above, except that the assay conditions are a 6-day culture with cell media changed every 24 hours.
In the Table: (+)—GIC50<20 μM; (++)—GIC50<10 μM; (+++)—GIC50<1 μM.

Row | Structure (SMILES) | IC50
1 | O=C(COc1c(-c2csc(N3CCOCC3)n2)ccc(F)c1F)NCCCCCCNc1cccc2c1C(=O)N(C1CCC(=O)NC1=O)C2=O (stereo not shown) [Example 1, 2-(2,3-difluoro-6-(2-morpholinothiazol-4-yl)phenoxy)-N-(6-((2-(2,6-dioxopiperidin-3-yl)-1,3-dioxoisoindolin-4-yl)amino)hexyl)acetamide] | < 20 µM
2 | O=C(COc1c(-c2csc(N3CCOCC3)n2)ccc(F)c1F)NCCCCCCCCCCNc1cccc2c1C(=O)N(C1CCC(=O)NC1=O)C2=O (stereo not shown) [Example 3, 2-(2,3-difluoro-6-(2-morpholinothiazol-4-yl)phenoxy)-N-(10-((2-(2,6-dioxopiperidin-3-yl)-1,3-dioxoisoindolin-4-yl)amino)decyl)acetamide] | < 20 µM
3 | Cc1ccc(-c2csc(N3CCOCC3)n2)c(OCC(=O)NCCCCC(=O)N[C@H](C(=O)N2C[C@H](O)C[C@H]2C(=O)N[C@@H](C)c2ccc(-c3scnc3C)cc2)C(C)(C)C)c1C [Example 37, (2S,4R)-1-((S)-2-(5-(2-(2,3-dimethyl-6-(2-morpholinothiazol-4-yl)phenoxy)acetamido)pentanamido)-3,3-dimethylbutanoyl)-4-hydroxy-N-((S)-1-(4-(4-methylthiazol-5-yl)phenyl)ethyl)pyrrolidine-2-carboxamide] | < 1 µM
4 | Cc1ncsc1-c1ccc([C@H](C)NC(=O)[C@@H]2C[C@@H](O)CN2C(=O)[C@@H](NC(=O)CCC(=O)NCCCOc2c(-c3csc(N4CCOCC4)n3)ccc(F)c2F)C(C)(C)C)cc1 [Example 38, N^1-(3-(2,3-difluoro-6-(2-morpholinothiazol-4-yl)phenoxy)propyl)-N^4-((S)-1-((2S,4R)-4-hydroxy-2-(((S)-1-(4-(4-methylthiazol-5-yl)phenyl)ethyl)carbamoyl)pyrrolidin-1-yl)-3,3-dimethyl-1-oxobutan-2-yl)succinamide] | < 20 µM
5 | Cc1ncsc1-c1ccc([C@H](C)NC(=O)[C@@H]2C[C@@H](O)CN2C(=O)[C@@H](NC(=O)CCC(=O)NCCOCCOc2c(-c3csc(N4CCOCC4)n3)ccc(F)c2F)C(C)(C)C)cc1 [Example 39, N^1-(2-(2-(2,3-difluoro-6-(2-morpholinothiazol-4-yl)phenoxy)ethoxy)ethyl)-N^4-((S)-1-((2S,4R)-4-hydroxy-2-(((S)-1-(4-(4-methylthiazol-5-yl)phenyl)ethyl)carbamoyl)pyrrolidin-1-yl)-3,3-dimethyl-1-oxobutan-2-yl)succinamide] | < 20 µM
6 | Cc1ncsc1-c1ccc([C@H](C)NC(=O)[C@@H]2C[C@@H](O)CN2C(=O)[C@@H](NC(=O)CNCCOCCOc2c(-c3csc(N4CCOCC4)n3)ccc(F)c2F)C(C)(C)C)cc1 [Example 40, (2S,4R)-1-((S)-2-(2-((2-(2-(2,3-difluoro-6-(2-morpholinothiazol-4-yl)phenoxy)ethoxy)ethyl)amino)acetamido)-3,3-dimethylbutanoyl)-4-hydroxy-N-((S)-1-(4-(4-methylthiazol-5-yl)phenyl)ethyl)pyrrolidine-2-carboxamide] | < 1 µM
7 | Cc1ncsc1-c1ccc([C@H](C)NC(=O)[C@@H]2C[C@@H](O)CN2C(=O)[C@@H](NC(=O)CCCCOc2c(-c3csc(N4CCOCC4)n3)ccc(F)c2F)C(C)(C)C)cc1 [Example 41, (2S,4R)-1-((S)-2-(5-(2,3-difluoro-6-(2-morpholinothiazol-4-yl)phenoxy)pentanamido)-3,3-dimethylbutanoyl)-4-hydroxy-N-((S)-1-(4-(4-methylthiazol-5-yl)phenyl)ethyl)pyrrolidine-2-carboxamide] | < 10 µM
8 | Cc1ncsc1-c1ccc([C@H](C)NC(=O)[C@@H]2C[C@@H](O)CN2C(=O)[C@@H](NC(=O)CCCCOc2c(F)ccc3sc(N4CCOCC4)nc23)C(C)(C)C)cc1 [Example 42, (2S,4R)-1-((S)-2-(5-((5-fluoro-2-morpholinobenzo[d]thiazol-4-yl)oxy)pentanamido)-3,3-dimethylbutanoyl)-4-hydroxy-N-((S)-1-(4-(4-methylthiazol-5-yl)phenyl)ethyl)pyrrolidine-2-carboxamide] | < 10 µM
9 | Cc1ncsc1-c1ccc([C@H](C)NC(=O)[C@@H]2C[C@@H](O)CN2C(=O)[C@@H](NC(=O)CCCCCCOc2c(F)ccc3sc(N4CCOCC4)nc23)C(C)(C)C)cc1 [Example 43, (2S,4R)-1-((S)-2-(7-((5-fluoro-2-morpholinobenzo[d]thiazol-4-yl)oxy)heptanamido)-3,3-dimethylbutanoyl)-4-hydroxy-N-((S)-1-(4-(4-methylthiazol-5-yl)phenyl)ethyl)pyrrolidine-2-carboxamide] | < 20 µM

tested on: 22Rv1; assay: 22Rv1 cell proliferation assay (Experimental Example 1, cell count); assay type: cell-based; conditions: Homo sapiens, 22Rv1, read-out: 22Rv1 cell count decrease at 10 μM for 48 hours
Procedure: The human prostate cancer cell line, 22Rv1 has been reported to express a high level of AR-V7. […] Standard culture media was RPMI-1640 supplemented with 10% fetal bovine serum. The test compound initially was dissolved in DMSO at 50 mM. This stock solution was then diluted as needed for the indicated concentrations. […]
In the Table: (+)—the cell count decreased between 0 and 20%; (++)—the cell count decreased […]; (+++)—the cell count decreased by more than 50%.

Row | Structure (SMILES) | inhibition at 10 µM
10 | CN[C@@H](C)C(=O)N[C@H](C(=O)N1CCC[C@H]1C(=O)N[C@H](C(=O)NCCCCNC(=O)COc1c(-c2csc(N3CCOCC3)n2)ccc(F)c1F)C(c1ccccc1)c1ccccc1)C1CCCCC1 [Example 25, (S)-1-((S)-2-cyclohexyl-2-((S)-2-(methylamino)propanamido)acetyl)-N-((S)-1-((4-(2-(2,3-difluoro-6-(2-morpholinothiazol-4-yl)phenoxy)acetamido)butyl)amino)-1-oxo-3,3-diphenylpropan-2-yl)pyrrolidine-2-carboxamide] (H-[NMeA][Chg]P[Dip]-X4) | > 50%
11 | CN[C@@H](C)C(=O)N[C@H](C(=O)N1CCC[C@H]1C(=O)N[C@H](C(=O)NCCCCCCNC(=O)c1cccc2sc(N3CCOCC3)nc12)C(c1ccccc1)c1ccccc1)C1CCCCC1 [Example 31, N-(6-((S)-2-((S)-1-((S)-2-cyclohexyl-2-((S)-2-(methylamino)propanamido)acetyl)pyrrolidine-2-carboxamido)-3,3-diphenylpropanamido)hexyl)-2-morpholinobenzo[d]thiazole-4-carboxamide] (H-[NMeA][Chg]P[Dip]-X3) | > 50%

same assay, conditions: Homo sapiens, 22Rv1, read-out: 22Rv1 cell count decrease at 10 μM for 48 hours; 10 μM (method: four days); read-out: 22Rv1 cell count decrease at 10 μM

Row | Structure (SMILES) | inhibition at 10 µM
12 | O=C(COc1c(-c2csc(N3CCOCC3)n2)ccc(F)c1F)NCCCCCCNc1cccc2c1C(=O)N(C1CCC(=O)NC1=O)C2=O (stereo not shown) [Example 1, 2-(2,3-difluoro-6-(2-morpholinothiazol-4-yl)phenoxy)-N-(6-((2-(2,6-dioxopiperidin-3-yl)-1,3-dioxoisoindolin-4-yl)amino)hexyl)acetamide] | < 50%
13 | O=C(COc1c(-c2csc(N3CCOCC3)n2)ccc(F)c1F)NCCCCCCCCCCNc1cccc2c1C(=O)N(C1CCC(=O)NC1=O)C2=O (stereo not shown) [Example 3, 2-(2,3-difluoro-6-(2-morpholinothiazol-4-yl)phenoxy)-N-(10-((2-(2,6-dioxopiperidin-3-yl)-1,3-dioxoisoindolin-4-yl)amino)decyl)acetamide] | < 50%
14 | COc1cc(C(=O)NCCOCCOCCOc2c(-c3csc(N4CCOCC4)n3)ccc(F)c2F)ccc1NC(=O)[C@@H]1N[C@@H](CC(C)(C)C)[C@](C#N)(c2ccc(Cl)cc2F)[C@H]1c1cccc(Cl)c1F [Example 27, (2R,3S,4R,5S)-3-(3-chloro-2-fluorophenyl)-4-(4-chloro-2-fluorophenyl)-4-cyano-N-(4-((2-(2-(2-(2,3-difluoro-6-(2-morpholinothiazol-4-yl)phenoxy)ethoxy)ethoxy)ethyl)carbamoyl)-2-methoxyphenyl)-5-neopentylpyrrolidine-2-carboxamide] | > 50%
15 | COc1cc(C(=O)NCCCCNC(=O)COc2c(-c3csc(N4CCOCC4)n3)ccc(F)c2F)ccc1NC(=O)[C@@H]1N[C@@H](CC(C)(C)C)[C@](C#N)(c2ccc(Cl)cc2F)[C@H]1c1cccc(Cl)c1F [Example 28, (2R,3S,4R,5S)-3-(3-chloro-2-fluorophenyl)-4-(4-chloro-2-fluorophenyl)-4-cyano-N-(4-((4-(2-(2,3-difluoro-6-(2-morpholinothiazol-4-yl)phenoxy)acetamido)butyl)carbamoyl)-2-methoxyphenyl)-5-neopentylpyrrolidine-2-carboxamide] | > 50%
16 | COc1cc(C(=O)NCCCCCCNC(=O)COc2c(-c3csc(N4CCOCC4)n3)ccc(F)c2F)ccc1NC(=O)[C@@H]1N[C@@H](CC(C)(C)C)[C@](C#N)(c2ccc(Cl)cc2F)[C@H]1c1cccc(Cl)c1F [Example 29, (2R,3S,4R,5S)-3-(3-chloro-2-fluorophenyl)-4-(4-chloro-2-fluorophenyl)-4-cyano-N-(4-((6-(2-(2,3-difluoro-6-(2-morpholinothiazol-4-yl)phenoxy)acetamido)hexyl)carbamoyl)-2-methoxyphenyl)-5-neopentylpyrrolidine-2-carboxamide] | < 50%
17 | Cc1ncsc1-c1ccc([C@H](C)NC(=O)[C@@H]2C[C@@H](O)CN2C(=O)[C@@H](NC(=O)CCCCNC(=O)c2cccc3sc(N4CCOCC4)nc23)C(C)(C)C)cc1 [Example 30, N-(5-(((S)-1-((2S,4R)-4-hydroxy-2-(((S)-1-(4-(4-methylthiazol-5-yl)phenyl)ethyl)carbamoyl)pyrrolidin-1-yl)-3,3-dimethyl-1-oxobutan-2-yl)amino)-5-oxopentyl)-2-morpholinobenzo[d]thiazole-4-carboxamide] | < 50%
18 | O=C1CCC(N2C(=O)c3cccc(NCCCCCCNC(=O)c4nc(Br)n(-c5csc(N6CCOCC6)n5)c4Br)c3C2=O)C(=O)N1 (stereo not shown) [Example 33, 2,5-dibromo-N-(6-((2-(2,6-dioxopiperidin-3-yl)-1,3-dioxoisoindolin-4-yl)amino)hexyl)-1-(2-morpholinothiazol-4-yl)-1H-imidazole-4-carboxamide] | 0 to 20%
19 | CN[C@@H](C)C(=O)N[C@H](C(=O)N1Cc2cc(OCCOCCOCCOc3c(-c4csc(N5CCOCC5)n4)ccc(F)c3F)ccc2C[C@H]1C(=O)N[C@@H]1CCCc2ccccc21)C(C)(C)C [Example 36, (S)-7-(2-(2-(2-(2,3-difluoro-6-(2-morpholinothiazol-4-yl)phenoxy)ethoxy)ethoxy)ethoxy)-2-((S)-3,3-dimethyl-2-((S)-2-(methylamino)propanamido)butanoyl)-N-((R)-1,2,3,4-tetrahydronaphthalen-1-yl)-1,2,3,4-tetrahydroisoquinoline-3-carboxamide dihydrochloride] | > 50%
